Data from ChEMBL document CHEMBL3865793, “Non-specific binding sites help to explain mixed inhibition in mushroom tyrosinase activities” (Eur J Med Chem, 2016).
The source made the active and inactive calls. The rule behind the calls is not given here.

How the values were obtained:
[1] = tested on: O=C(O)c1ccccc1C(=O)O; test: (§1) Activation of cresolase activity of mushroom tyrosinase assessed as Vmax after 15 mins using 4-[(4-Methylphenyl) azo]-phenol as substrate; conditions: Agaricus bisporus
[2] = tested on: O=C(O)/C=C/c1ccccc1; test: as §1; conditions: Agaricus bisporus
[3] = molecular target: T1, Mushroom tyrosinase (Agaricus bisporus) (UniProt O42713+Q00024+C7FF04+C7FF05); test: Inhibition of cresolase activity of mushroom tyrosinase at 0 to 450 uM using 18 to 61 uM of 4-[(4-Methylphenyl) azo]-phenol as substrate
[4] = molecular target: T1, Mushroom tyrosinase (Agaricus bisporus); test: Activation of cresolase activity of mushroom tyrosinase at 18 uM using 4-[(4-Methylphenyl) azo]-phenol as substrate by Dixon plot analysis
[5] = molecular target: T1, Mushroom tyrosinase (Agaricus bisporus); test: Activation of cresolase activity of mushroom tyrosinase at 50 to 150 uM using 4-[(4-Methylphenyl) azo]-phenol as substrate by Lineweaver-Burk plot analysis
[6] = molecular target: T1, Mushroom tyrosinase (Agaricus bisporus); test: Activation of cresolase activity of mushroom tyrosinase at <= 150 uM after 15 mins using 4-[(4-Methylphenyl) azo]-phenol as substrate relative to untreated control
[7] = molecular target: T1, Mushroom tyrosinase (Agaricus bisporus); test: Activation of cresolase activity of mushroom tyrosinase at <150 uM using 4-[(4-Methylphenyl) azo]-phenol as substrate measured after 15 mins by spectrophotometric method
[8] = molecular target: T1, Mushroom tyrosinase (Agaricus bisporus); test: Activation of cresolase activity of mushroom tyrosinase assessed as dissociation constant for substrate after 15 mins using 4-[(4-Methylphenyl) azo]-phenol as substrate
[9] = molecular target: T1, Mushroom tyrosinase (Agaricus bisporus); test: Inhibition of cresolase activity of mushroom tyrosinase at >150 uM using 4-[(4-Methylphenyl) azo]-phenol as substrate measured after 15 mins by spectrophotometric method
[10] = molecular target: Mushroom tyrosinase (Agaricus bisporus, UniProt O42713+Q00024+C7FF04+C7FF05); test: Inhibition of cresolase activity of mushroom tyrosinase using 4-[(4-Methylphenyl) azo]-phenol as substrate measured after 15 mins by spectrophotometric method
[11] = molecular target: T1, Mushroom tyrosinase (Agaricus bisporus); test: Activation of cresolase activity of mushroom tyrosinase assessed as inverse of activation constant after 15 mins using 4-[(4-Methylphenyl) azo]-phenol as substrate
[12] = molecular target: T1, Mushroom tyrosinase (Agaricus bisporus); test: Activation of cresolase activity of mushroom tyrosinase assessed as activation constant after 15 mins using 4-[(4-Methylphenyl) azo]-phenol as substrate
[13] = molecular target: T1, Mushroom tyrosinase (Agaricus bisporus); test: Mixed type activation of cresolase activity of mushroom tyrosinase using 4-[(4-Methylphenyl) azo]-phenol as substrate by Dixon plot analysis
[14] = molecular target: T1, Mushroom tyrosinase (Agaricus bisporus); test: Activation of cresolase activity of mushroom tyrosinase at >5 uM after 15 mins using 4-[(4-Methylphenyl) azo]-phenol as substrate
[15] = molecular target: T1, Mushroom tyrosinase (Agaricus bisporus); test: Inhibition of cresolase activity of mushroom tyrosinase at <5 uM using 4-[(4-Methylphenyl) azo]-phenol as substrate
[16] = molecular target: T1, Mushroom tyrosinase (Agaricus bisporus); test: Inhibition of cresolase activity of mushroom tyrosinase at 0 to 10.5 uM using 23 to 50.05 uM of 4-[(4-Methylphenyl) azo]-phenol as substrate
[17] = molecular target: T1, Mushroom tyrosinase (Agaricus bisporus); test: Activation of cresolase activity of mushroom tyrosinase at <= 10 uM after 15 mins using 4-[(4-Methylphenyl) azo]-phenol as substrate relative to untreated control
[18] = molecular target: T1, Mushroom tyrosinase (Agaricus bisporus); test: Mixed type activation of cresolase activity of mushroom tyrosinase at 5 to 10.5 uM using 4-[(4-Methylphenyl) azo]-phenol as substrate by Lineweaver-Burk plot analysis

Sequence of Mushroom tyrosinase (Agaricus bisporus) (from UniProt O42713+Q00024+C7FF04+C7FF05) (C7FF05 whole entry, looked up): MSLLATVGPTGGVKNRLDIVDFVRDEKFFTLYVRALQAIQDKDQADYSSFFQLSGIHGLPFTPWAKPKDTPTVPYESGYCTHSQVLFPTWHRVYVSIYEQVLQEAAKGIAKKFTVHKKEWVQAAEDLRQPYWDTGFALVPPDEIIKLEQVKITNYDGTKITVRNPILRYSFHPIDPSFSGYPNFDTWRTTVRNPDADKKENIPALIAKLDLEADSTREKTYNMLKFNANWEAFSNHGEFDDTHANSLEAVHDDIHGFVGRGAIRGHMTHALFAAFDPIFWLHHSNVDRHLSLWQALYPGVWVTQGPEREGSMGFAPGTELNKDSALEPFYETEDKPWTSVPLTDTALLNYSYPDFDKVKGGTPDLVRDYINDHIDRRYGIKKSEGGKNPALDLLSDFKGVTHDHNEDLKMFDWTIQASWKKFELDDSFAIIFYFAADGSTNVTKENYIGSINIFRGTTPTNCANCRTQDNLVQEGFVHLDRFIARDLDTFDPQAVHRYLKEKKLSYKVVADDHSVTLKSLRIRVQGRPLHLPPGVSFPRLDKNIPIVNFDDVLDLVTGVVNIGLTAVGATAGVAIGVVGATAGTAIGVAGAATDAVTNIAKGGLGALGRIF
Sequence of Mushroom tyrosinase (Agaricus bisporus) (from UniProt O42713+Q00024+C7FF04+C7FF05) (C7FF04 whole entry, looked up): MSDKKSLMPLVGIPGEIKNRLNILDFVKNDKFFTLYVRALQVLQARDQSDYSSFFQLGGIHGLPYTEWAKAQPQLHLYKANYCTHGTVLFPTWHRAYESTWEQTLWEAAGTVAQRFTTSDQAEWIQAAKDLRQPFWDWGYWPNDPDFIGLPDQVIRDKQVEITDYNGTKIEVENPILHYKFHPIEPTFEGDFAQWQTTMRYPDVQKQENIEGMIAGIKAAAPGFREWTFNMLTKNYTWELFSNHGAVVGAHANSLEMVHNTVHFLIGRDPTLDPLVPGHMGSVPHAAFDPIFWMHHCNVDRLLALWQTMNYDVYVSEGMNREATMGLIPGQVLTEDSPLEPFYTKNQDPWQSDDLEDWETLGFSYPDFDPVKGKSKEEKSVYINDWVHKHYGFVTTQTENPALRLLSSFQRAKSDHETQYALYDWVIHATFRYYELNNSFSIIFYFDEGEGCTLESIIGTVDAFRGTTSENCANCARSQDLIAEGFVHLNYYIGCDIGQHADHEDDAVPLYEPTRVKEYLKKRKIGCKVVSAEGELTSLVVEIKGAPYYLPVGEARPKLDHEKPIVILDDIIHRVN
Sequence of Mushroom tyrosinase (Agaricus bisporus) (from UniProt O42713+Q00024+C7FF04+C7FF05) (Q00024 whole entry, looked up): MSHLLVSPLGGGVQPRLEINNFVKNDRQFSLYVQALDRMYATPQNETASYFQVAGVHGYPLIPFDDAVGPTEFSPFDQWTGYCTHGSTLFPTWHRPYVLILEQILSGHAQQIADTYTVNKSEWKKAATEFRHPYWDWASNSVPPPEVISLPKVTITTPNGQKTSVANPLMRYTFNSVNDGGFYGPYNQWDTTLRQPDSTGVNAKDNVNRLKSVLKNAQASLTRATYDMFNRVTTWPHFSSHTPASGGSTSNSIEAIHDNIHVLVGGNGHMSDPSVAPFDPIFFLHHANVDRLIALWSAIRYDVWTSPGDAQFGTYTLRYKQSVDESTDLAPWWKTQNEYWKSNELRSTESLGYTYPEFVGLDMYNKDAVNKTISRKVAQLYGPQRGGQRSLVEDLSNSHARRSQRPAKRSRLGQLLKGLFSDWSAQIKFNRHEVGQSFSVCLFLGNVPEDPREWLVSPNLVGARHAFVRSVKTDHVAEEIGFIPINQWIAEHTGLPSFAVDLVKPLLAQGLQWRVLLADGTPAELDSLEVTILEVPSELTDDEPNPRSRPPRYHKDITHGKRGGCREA
Sequence of Mushroom tyrosinase (Agaricus bisporus) (from UniProt O42713+Q00024+C7FF04+C7FF05) (O42713 whole entry, looked up): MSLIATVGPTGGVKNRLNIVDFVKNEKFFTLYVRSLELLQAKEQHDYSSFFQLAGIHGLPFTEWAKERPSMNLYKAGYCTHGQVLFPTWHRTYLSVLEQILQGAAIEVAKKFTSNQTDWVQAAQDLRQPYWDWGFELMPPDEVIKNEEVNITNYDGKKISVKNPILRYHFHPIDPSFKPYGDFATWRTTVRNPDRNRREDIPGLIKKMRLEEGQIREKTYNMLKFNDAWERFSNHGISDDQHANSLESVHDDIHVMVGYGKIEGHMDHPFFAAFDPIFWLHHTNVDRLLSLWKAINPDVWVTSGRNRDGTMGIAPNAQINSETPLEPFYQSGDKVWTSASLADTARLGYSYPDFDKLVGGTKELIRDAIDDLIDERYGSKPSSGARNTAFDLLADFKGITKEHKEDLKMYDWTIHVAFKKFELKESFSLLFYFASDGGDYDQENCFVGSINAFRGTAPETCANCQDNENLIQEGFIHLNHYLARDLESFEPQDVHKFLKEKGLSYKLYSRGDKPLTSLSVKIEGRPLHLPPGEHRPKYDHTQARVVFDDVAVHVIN

Compound | Vmax [1] [µM/min] | Vmax [2] [µM/min] | inhibition [3] | Activity [4] | Activity [5] | Activity [6] [%] | Activity [7] | K [8] [µM] | inhibition [9] | IC50 [10] [µM] | Ki [10] [µM] | Ka [11] [mM⁻¹] | KA [12] [µM] | Activity [13] | Activity [14] | inhibition [15] | inhibition [16] | fold change (FC) [17] | Activity [18]
Mushroom tyrosinase (Agaricus bisporus) (from UniProt O42713+Q00024+C7FF04+C7FF05) | 14.5 | 7.9 |  |  |  |  |  |  |  |  |  |  |  |  |  |  |  |  | 
O=C(O)c1ccccc1C(=O)O [PHTHALIC ACID] |  |  | Active | Active | Active | 11 to 23 | Active | 67.2 | Active | 271.79 | 100 | 91.3 | 10.9 |  |  |  |  |  | 
O=C(O)/C=C/c1ccccc1 |  |  |  |  |  |  |  |  |  |  |  | 185 | 5.41 | Active | Active | Active | Active | 2 | Active
